Laboratory results taken from patent US4496546A, “Erythromycin D and esters thereof” (Pfizer Inc., priority 1982, dated 1985).
≈ marks a conversion by molar mass, not a printed value. Where two headings read alike, the source gives them in different places.

Experiments:
E. Coli 470 = assay: in vitro MIC, tube serial dilution, 24 hour incubation; format: cell-based; settings: Escherichia coli
Protocol: (§1) Table I summarizes the results of in vitro MIC (minimum inhibitory concentration) tests. For this standard test, each organism is inoculated into a series of tubes containing nutrient medium and serially diluted concentrations of the antibiotic. The MIC is the lowest concentration of antibiotic which prevents growth of the microorganism over the 24 hour incubation test period.

Hem. influ. 012 = assay: as above; format: cell-based
Protocol: as §1

Hem. influ. 036 = assay: as above; format: cell-based
Protocol: as §1

Neiss. Sicca 000 = assay: as above; format: cell-based
Protocol: as §1

Past. mult. 001 = assay: as above; format: cell-based
Protocol: as §1

Staph. aureus 005 = assay: as above; format: cell-based
Protocol: as §1

Staph. aureus 052 = assay: as above; format: cell-based
Protocol: as §1

Staph. aureus 400 = assay: as above; format: cell-based
Protocol: as §1

Staph. epid. 111 = assay: as above; format: cell-based
Protocol: as §1

Strep. faec. 006 = assay: as above; format: cell-based
Protocol: as §1

Strep. pneum. 012 = assay: as above; format: cell-based
Protocol: as §1

Strep. pyog. 203 = assay: as above; format: cell-based
Protocol: as §1

Staph aureus 005 = assay: in vivo oral protection against acute experimental infection in mice; settings: read-out: PD50
Excerpt: (§2) In determining such activity, acute experimental infections are produced in mice by the intraperitoneal inoculation of the mice with a standardized culture of the test organism suspended in 5 percent hog gastric mucin. Infection severity is standardized so that the mice receive at least one LD100 dose of the organism (LD100 : the minimum inoculum of organism required to consistently kill 100 percent of the infected, nontreated control mice). The test compound is orally administered at various dosage levels to groups of infected mice at 1/2, 4 and 24 hours post infection. At the end of the test, the activity of the mixture is assessed by counting the number of survivors among treated animals at a given dose. Activity is expressed as the percentage of animals which survive at a given dose, or calculated as a PD50 (dose which protects 50% of the animals from infection).

Strep pyogenes 203 = assay: as above; settings: Mus musculus, read-out: PD50
Excerpt: as §2

[1] = test system: Gram-positive and Gram-negative bacteria; assay: in vitro antibacterial activity (summary statement); format: cell-based; settings: medium spectrum of Gram-positive and Gram-negative bacteria
Protocol: as §1

sensitive bacteria = assay: in vivo activity against infections by sensitive bacteria (summary statement); settings: mice, oral
Excerpt: as §2

stability at acid pH = format: physicochemical; settings: acid pH (2.5 to 5.0); unlike erythromycin A
[2] = absorption via the oral route; format: in vivo
[3] = Staphylococcus aureus, 400, 24 h
[4] = Neiss. Sicca 000, read-out: MIC
[5] = Staphylococcus aureus, 24 h, Staph. aureus 005, read-out: MIC
[6] = Staphylococcus aureus, 24 h, Staph. aureus 052, read-out: MIC
[7] = Staphylococcus aureus, 24 h, Staph. aureus 400, read-out: MIC
[8] = Staph. epid. 111, read-out: MIC
[9] = Strep. faec. 006, read-out: MIC
[10] = Strep. pneum. 012, read-out: MIC
[11] = Strep. pyog. 203, read-out: MIC
[12] = Staphylococcus aureus, mice, Staph aureus 005, oral dosage 1/2, 4 and 24 hours post infection
[13] = mice, Strep pyogenes 203, oral dosage 1/2, 4 and 24 hours post infection

Compound `CCC1OC(=O)C(C)C(OC2CC(C)(O)C(O)C(C)O2)C(C)C(OC2OC(C)CC(N(C)C)C2O)C(C)(O)CC(C)C(=O)C(C)C(O)C1C` (centres unmarked) [Erythromycin D] has an MIC (E. Coli 470) of 3.12 µg/mL (≈ 4.43 µM), an MIC (Hem. influ. 012) of 25 µg/mL (≈ 35.5 µM) and an MIC (Hem. influ. 036) of 50 µg/mL (≈ 71 µM). It also gave an MIC (Neiss. Sicca 000) of 6.25 µg/mL (≈ 8.88 µM), an MIC (Past. mult. 001) of 6.25 µg/mL (≈ 8.88 µM) and an MIC (Staph. aureus 005; Staphylococcus aureus, 005, 24 h) of 0.39 µg/mL (≈ 0.554 µM). The MIC (Staph. aureus 052; Staphylococcus aureus, 052, 24 h) was 0.39 µg/mL (≈ 0.554 µM), the MIC (Staph. aureus 400; [3]) was 6.25 µg/mL (≈ 8.88 µM) and the MIC (Staph. epid. 111) was 0.2 µg/mL (≈ 0.284 µM). It also gave an MIC (Strep. faec. 006) of 0.39 µg/mL (≈ 0.554 µM), an MIC (Strep. pneum. 012) of 0.025 µg/mL (≈ 0.0355 µM) and an MIC (Strep. pyog. 203) of 0.025 µg/mL (≈ 0.0355 µM). For the same compound, the ED50 (Staph aureus 005; Staphylococcus aureus, 005, po) was 57 mg/kg, the ED50 (Strep pyogenes 203; po) was 15 mg/kg and the in vitro activity [1] was “exhibit in vitro activity”. For the same compound, the in vivo activity (sensitive bacteria) was “exhibit in vivo activity” and the “stability at acid pH” value (stability at acid pH) was “fairly stable”.

With `CCC1OC(=O)C(C)C(OC2CC(C)(O)C(OC(C)=O)C(C)O2)C(C)C(OC2OC(C)CC(N(C)C)C2O)C(C)(O)CC(C)C(=O)C(C)C(O)C1C` (centres unmarked) [4"-O-Acetylerythromycin D] the MIC (E. Coli 470) was 6.25 µg/mL (≈ 8.38 µM), the MIC (Hem. influ. 012; Hem. influ. 012, read-out: MIC) was 50 µg/mL (≈ 67 µM) and the MIC (Hem. influ. 036; Hem. influ. 036, read-out: MIC) was over 50 µg/mL. It also gave an MIC (Neiss. Sicca 000; [4]) of 25 µg/mL (≈ 33.5 µM), an MIC (Past. mult. 001; Past. mult. 001, read-out: MIC) of 25 µg/mL (≈ 33.5 µM) and an MIC (Staph. aureus 005; [5]) of 3.12 µg/mL (≈ 4.18 µM). It also gave an MIC (Staph. aureus 052; [6]) of 6.25 µg/mL (≈ 8.38 µM), an MIC (Staph. aureus 400; [7]) of over 50 µg/mL and an MIC (Staph. epid. 111; [8]) of 0.78 µg/mL (≈ 1.05 µM). It also gave an MIC (Strep. faec. 006; [9]) of 3.12 µg/mL (≈ 4.18 µM), an MIC (Strep. pneum. 012; [10]) of 0.39 µg/mL (≈ 0.523 µM) and an MIC (Strep. pyog. 203; [11]) of 0.2 µg/mL (≈ 0.268 µM). For the same compound, the ED50 (Staph aureus 005; [12]) was 139 mg/kg and the ED50 (Strep pyogenes 203; [13]) was 40 mg/kg.

`CCC1OC(=O)C(C)C(OC2CC(C)(OC(C)=O)C(OC(C)=O)C(C)O2)C(C)C(OC2OC(C)CC(N(C)C)C2O)C(C)(O)CC(C)C(=O)C(C)C(O)C1C` (centres unmarked) [3",4"-Di-O-acetylerythromycin D] gave an MIC (E. Coli 470; E. Coli 470, read-out: MIC) of 12.5 µg/mL (≈ 15.9 µM), an MIC (Hem. influ. 012; Hem. influ. 012, read-out: MIC) of over 50 µg/mL and an MIC (Hem. influ. 036; Hem. influ. 036, read-out: MIC) of over 50 µg/mL. For the same compound, the MIC (Neiss. Sicca 000; [4]) was 25 µg/mL (≈ 31.7 µM), the MIC (Staph. aureus 005; [5]) was 1.56 µg/mL (≈ 1.98 µM) and the MIC (Staph. aureus 052; [6]) was 3.12 µg/mL (≈ 3.96 µM). The MIC (Staph. aureus 400; [3]) was 50 µg/mL (≈ 63.5 µM), the MIC (Staph. epid. 111; [8]) was 0.39 µg/mL (≈ 0.495 µM) and the MIC (Strep. faec. 006; [9]) was 1.56 µg/mL (≈ 1.98 µM). It also gave an MIC (Strep. pneum. 012; [10]) of 0.1 µg/mL (≈ 0.127 µM), an MIC (Strep. pyog. 203; [11]) of 0.1 µg/mL (≈ 0.127 µM) and an ED50 (Staph aureus 005; [12]) of 27 mg/kg. For the same compound, the ED50 (Strep pyogenes 203; [13]) was 15 mg/kg and the “absorption via the oral route” value [2] was “high degree of absorption”.

Work on `CCC(=O)OC1C(C)OC(OC2C(C)C(=O)OC(CC)C(C)C(O)C(C)C(=O)C(C)CC(C)(O)C(OC3OC(C)CC(N(C)C)C3O)C2C)CC1(C)OC(C)=O` (centres unmarked) [3"-O-Acetyl-4"-O-propionylerythromycin D] yielded an MIC (E. Coli 470; E. Coli 470, read-out: MIC) of 12.5 µg/mL (≈ 15.6 µM), an MIC (Hem. influ. 012) of 50 µg/mL (≈ 62.3 µM) and an MIC (Hem. influ. 036; Hem. influ. 036, read-out: MIC) of over 50 µg/mL. The MIC (Neiss. Sicca 000; [4]) was 12.5 µg/mL (≈ 15.6 µM), the MIC (Past. mult. 001; Past. mult. 001, read-out: MIC) was 12.5 µg/mL (≈ 15.6 µM) and the MIC (Staph. aureus 005; [5]) was 0.39 µg/mL (≈ 0.486 µM). It also gave an MIC (Staph. aureus 052; [6]) of 0.78 µg/mL (≈ 0.973 µM), an MIC (Staph. aureus 400; [7]) of 12.5 µg/mL (≈ 15.6 µM) and an MIC (Staph. epid. 111; [8]) of 0.2 µg/mL (≈ 0.249 µM). For the same compound, the MIC (Strep. faec. 006; [9]) was 0.78 µg/mL (≈ 0.973 µM), the MIC (Strep. pneum. 012; [10]) was 0.05 µg/mL (≈ 0.0623 µM) and the MIC (Strep. pyog. 203; [11]) was 0.05 µg/mL (≈ 0.0623 µM).

`CC[C@H]1OC(=O)[C@H](C)[C@@H](O[C@H]2C[C@@](C)(OC)[C@@H](O)[C@H](C)O2)[C@H](C)[C@@H](O[C@@H]2O[C@H](C)C[C@H](N(C)C)[C@H]2O)[C@](C)(O)C[C@@H](C)C(=O)[C@H](C)[C@@H](O)[C@]1(C)O` [Erythromycin A, reference compound] gave an ED50 (Staph aureus 005; [12]) of 64 mg/kg and an ED50 (Strep pyogenes 203; [13]) of 25 mg/kg.
